Measurements as given in the NIST ThermoML archive (doi:10.1016/j.jct.2015.11.027).

Settings: Liquid, Vibrating wire viscometry

CCc1ccccc1 [ethylbenzene]
Settings | viscosity [mPa·s]
253.21 K, 5000 kPa | 1.259
253.22 K, 1000 kPa | 1.211
253.22 K, 10000 kPa | 1.311
253.22 K, 35000 kPa | 1.593
253.23 K, 100 kPa | 1.2
253.23 K, 20000 kPa | 1.423
253.23 K, 25000 kPa | 1.479
253.24 K, 15000 kPa | 1.368
253.24 K, 30000 kPa | 1.535
263.2 K, 10000 kPa | 1.11
263.2 K, 15000 kPa | 1.16
263.21 K, 5000 kPa | 1.063
263.21 K, 20000 kPa | 1.207
263.21 K, 25000 kPa | 1.257
263.21 K, 35000 kPa | 1.35
263.22 K, 100 kPa | 1.021
263.22 K, 1000 kPa | 1.028
263.22 K, 30000 kPa | 1.304
273.15 K, 5000 kPa | 0.9249
273.15 K, 20000 kPa | 1.042
273.15 K, 30000 kPa | 1.123
273.15 K, 35000 kPa | 1.163
273.16 K, 25000 kPa | 1.082
273.17 K, 1000 kPa | 0.8919
273.18 K, 10000 kPa | 0.9635
273.19 K, 15000 kPa | 1.003
273.21 K, 100 kPa | 0.8832
283.13 K, 1000 kPa | 0.7784
283.14 K, 10000 kPa | 0.8372
283.15 K, 20000 kPa | 0.9017
283.16 K, 100 kPa | 0.7737
283.16 K, 5000 kPa | 0.8028
283.16 K, 30000 kPa | 0.9641
283.16 K, 35000 kPa | 0.9964
283.17 K, 15000 kPa | 0.8678
283.17 K, 25000 kPa | 0.9314
293.18 K, 5000 kPa | 0.7056
293.2 K, 1000 kPa | 0.6832
293.22 K, 25000 kPa | 0.8173
293.23 K, 15000 kPa | 0.7607
293.24 K, 10000 kPa | 0.7327
293.24 K, 20000 kPa | 0.7871
293.24 K, 30000 kPa | 0.8447
293.26 K, 100 kPa | 0.6786
293.26 K, 35000 kPa | 0.8724
303.15 K, 100 kPa | 0.6033
303.17 K, 1000 kPa | 0.6074
303.17 K, 20000 kPa | 0.6989
303.18 K, 5000 kPa | 0.6268
303.18 K, 25000 kPa | 0.7235
303.18 K, 35000 kPa | 0.7739
303.19 K, 15000 kPa | 0.6744
303.19 K, 30000 kPa | 0.7502
303.2 K, 10000 kPa | 0.6499
313.08 K, 30000 kPa | 0.6722
313.09 K, 20000 kPa | 0.6261
313.1 K, 10000 kPa | 0.5812
313.1 K, 25000 kPa | 0.649
313.1 K, 35000 kPa | 0.694
313.11 K, 5000 kPa | 0.5596
313.12 K, 100 kPa | 0.5386
313.12 K, 1000 kPa | 0.5427
313.12 K, 15000 kPa | 0.6039
322.97 K, 100 kPa | 0.4865
322.97 K, 20000 kPa | 0.5648
322.98 K, 1000 kPa | 0.4895
322.98 K, 5000 kPa | 0.5042
322.98 K, 10000 kPa | 0.5245
322.98 K, 15000 kPa | 0.544
322.98 K, 25000 kPa | 0.5856
322.98 K, 30000 kPa | 0.606
322.98 K, 35000 kPa | 0.6259
332.91 K, 100 kPa | 0.4422
332.91 K, 5000 kPa | 0.4595
332.92 K, 1000 kPa | 0.4448
332.92 K, 10000 kPa | 0.478
332.92 K, 15000 kPa | 0.4961
332.92 K, 20000 kPa | 0.5149
332.92 K, 25000 kPa | 0.5331
332.92 K, 30000 kPa | 0.5516
332.92 K, 35000 kPa | 0.5706
342.8 K, 1000 kPa | 0.4049
342.8 K, 10000 kPa | 0.4356
342.8 K, 15000 kPa | 0.4524
342.8 K, 20000 kPa | 0.4691
342.8 K, 25000 kPa | 0.4869
342.8 K, 30000 kPa | 0.5045
342.8 K, 35000 kPa | 0.5223
342.81 K, 100 kPa | 0.4022
342.81 K, 5000 kPa | 0.4186
352.72 K, 5000 kPa | 0.3851
352.72 K, 20000 kPa | 0.4335
352.72 K, 35000 kPa | 0.4807
352.73 K, 100 kPa | 0.3693
352.73 K, 1000 kPa | 0.372
352.73 K, 10000 kPa | 0.4003
352.73 K, 15000 kPa | 0.4164
352.73 K, 25000 kPa | 0.4495
352.73 K, 30000 kPa | 0.4654
362.66 K, 100 kPa | 0.339
362.66 K, 1000 kPa | 0.3418
362.66 K, 5000 kPa | 0.3538
362.66 K, 15000 kPa | 0.3838
362.66 K, 20000 kPa | 0.3986
362.66 K, 25000 kPa | 0.4137
362.66 K, 30000 kPa | 0.4289
362.67 K, 10000 kPa | 0.3685
362.67 K, 35000 kPa | 0.4429
372.59 K, 5000 kPa | 0.3272
372.59 K, 10000 kPa | 0.341
372.59 K, 15000 kPa | 0.3541
372.59 K, 20000 kPa | 0.3688
372.59 K, 25000 kPa | 0.3822
372.59 K, 30000 kPa | 0.3967
372.59 K, 35000 kPa | 0.4108
372.6 K, 1000 kPa | 0.3155
372.61 K, 100 kPa | 0.3127

Cc1ccc(C)cc1 [1,4-dimethylbenzene]
Settings | viscosity [mPa·s]
293.03 K, 15000 kPa | 0.7277
293.03 K, 20000 kPa | 0.7569
293.03 K, 25000 kPa | 0.7883
293.03 K, 30000 kPa | 0.8186
293.04 K, 100 kPa | 0.6444
293.04 K, 1000 kPa | 0.6494
293.04 K, 5000 kPa | 0.672
293.04 K, 10000 kPa | 0.6997
302.86 K, 100 kPa | 0.5762
302.86 K, 1000 kPa | 0.5804
302.87 K, 5000 kPa | 0.5995
302.87 K, 10000 kPa | 0.6244
302.88 K, 15000 kPa | 0.6499
302.88 K, 20000 kPa | 0.6747
302.88 K, 25000 kPa | 0.7023
302.89 K, 30000 kPa | 0.7274
312.76 K, 100 kPa | 0.515
312.76 K, 1000 kPa | 0.5186
312.76 K, 15000 kPa | 0.5806
312.76 K, 20000 kPa | 0.6027
312.76 K, 25000 kPa | 0.6263
312.76 K, 30000 kPa | 0.6494
312.77 K, 5000 kPa | 0.5356
312.77 K, 10000 kPa | 0.5575
322.62 K, 100 kPa | 0.4653
322.63 K, 1000 kPa | 0.4689
322.64 K, 5000 kPa | 0.4833
322.64 K, 10000 kPa | 0.5038
322.64 K, 15000 kPa | 0.524
322.64 K, 20000 kPa | 0.5442
322.64 K, 25000 kPa | 0.5653
322.65 K, 30000 kPa | 0.5861
332.57 K, 30000 kPa | 0.5304
332.58 K, 100 kPa | 0.4206
332.58 K, 1000 kPa | 0.4237
332.58 K, 5000 kPa | 0.4383
332.58 K, 10000 kPa | 0.4564
332.58 K, 15000 kPa | 0.4745
332.58 K, 20000 kPa | 0.493
332.58 K, 25000 kPa | 0.5109
342.27 K, 100 kPa | 0.3815
342.27 K, 1000 kPa | 0.3842
342.28 K, 5000 kPa | 0.3977
342.28 K, 10000 kPa | 0.4144
342.28 K, 20000 kPa | 0.4482
342.29 K, 15000 kPa | 0.4314
342.29 K, 25000 kPa | 0.4649
342.29 K, 30000 kPa | 0.4833
352.2 K, 5000 kPa | 0.3634
352.2 K, 10000 kPa | 0.3791
352.2 K, 15000 kPa | 0.3945
352.2 K, 20000 kPa | 0.4111
352.2 K, 25000 kPa | 0.4263
352.2 K, 30000 kPa | 0.4423
352.21 K, 100 kPa | 0.3483
352.21 K, 1000 kPa | 0.3507
362.73 K, 100 kPa | 0.3194
362.74 K, 1000 kPa | 0.3217
362.75 K, 5000 kPa | 0.3331
362.76 K, 10000 kPa | 0.3467
362.76 K, 15000 kPa | 0.3616
362.77 K, 20000 kPa | 0.3756
362.81 K, 25000 kPa | 0.3915
362.82 K, 30000 kPa | 0.405
372.69 K, 20000 kPa | 0.348
372.69 K, 25000 kPa | 0.3614
372.69 K, 30000 kPa | 0.3752
372.7 K, 10000 kPa | 0.3203
372.7 K, 15000 kPa | 0.3341
372.71 K, 100 kPa | 0.2936
372.71 K, 1000 kPa | 0.296
372.71 K, 5000 kPa | 0.3061
